Values of other authors as cited in patent US9868746B2, “Substituted 5-aminothieno[2,3-C]pyridazine-6-carboxamide analogs as positive allosteric modulators of the muscarinic acetylcholine receptor M4” (Vanderbilt University, priority 2012, dated 2018).

Assays:
[1] = hepatotoxicity of AChE inhibitors such as tacrine; cited from earlier work
animal models = conditions: cited from earlier work
[2] = tested on: Alzheimer's disease patients; conditions: cited from earlier work

Structure (SMILES)	elevated liver transaminases observed in patients [1]	catalepsy in animal models (animal models; in vivo)	activity in animal models with similar profiles to known antipsychotic drugs (animal models; muscarinic agonist, Bymaster 1998, 1999, Shannon 1999, 2000)	psychotic behavioral symptoms such as delusions, suspiciousness, vocal outbursts, and hallucinations ([2]; Bodick 1997)	treatment induced side effects [2]
Nc1c2c(nc3ccccc13)CCCC2 [tacrine]	about 30 % of patients	–	–	–	–
CCCCCCOc1nsnc1C1=CCCN(C)C1 [xanomeline]	–	without causing catalepsy	active in animal models	reduce psychotic behavioral symptoms	gastrointestinal effects
